# From patent US20130096212A1, “Method and a Kit to Predict Response to Antidepressant Treatment” (UNIVERSITY OF TARTU, priority 2011, published 2013)
# How the values were obtained:
# [1] = system: MDD patients; assay: Replication sample: MDD patients treated with escitalopram for 12 weeks, MADRS change by rs41271330 genotype; type: in vivo, human; details: 394 patients, SE=3%
# Description: Replication sample consisted of 394 patients treated with escitalopram for 12 weeks. All the patients were of European origin. […] For validation of significant markers from previous step 5 SNPs were genotyped with pre-designed Taqman assays and one SNP was genotyped with Sanger sequencing. These […] markers were genotyped in the remaining 116 individuals, and tested for association with the clinical outcome. Three different outcome definitions were used: MADRS score at the final visit (week 12), relative change (percentage) in MADRS score since baseline, and absolute change in MADRS score since baseline. For each outcome, a univariate additive regression model was fitted to assess the association, as well as a multivariate model, adjusted for age, gender, age at first depression episode, baseline MADRS and BDI scores. Additionally a mixed-effects longitudinal model was fit for MADRS scores at week 0 to week 12, using a random subject-specific intercept. Also here, both unadjusted and adjusted models were fit. Age at recruitment, gender, age at first depression episode and baseline BDI score appeared to be independently predictive (p<0.05) for at least one of the outcomes after adjusting for other covariates in a multivariate regression model and were therefore used as adjustment variables for genotype-outcome association. […]
# [2] = system: outpatients with Major Depressive Disorder; assay: 12-week open-label escitalopram treatment of MDD outpatients, Estonian sample (MADRS, HAM-D, CGI), also by rs41271330 genotype; type: in vivo, human; details: for patients with moderate or severe depression (MADRS score 16 or more): end of 12 weeks
# Description: The study sample consisted of 135 outpatients with Major Depressive Disorder, MDD (mean age 31.1±11.6 years, 68% females) recruited at the Psychiatry Clinic of Tartu University Hospital in Estonia. The diagnosis according to DSM-IV criteria was verified using Mini International Neuropsychiatric Interview (M.I.N.I. 5.0.0) and substantiated by psychiatric history and medical records. At least moderate severity of depression was required for inclusion as indicated by a Montgomery-Asberg Depression Rating Scale (MADRS) total score of 22 or higher. MDD patients with a secondary current comorbid anxiety disorder were included in this study, except for obsessive-compulsive disorder, posttraumatic stress disorder, or panic disorder, and these comprised 51% of the sample. Patients were excluded if they met diagnostic criteria for any of the following: bipolar disorder, psychotic disorder or features, current eating disorders, mental retardation, any pervasive developmental disorder or cognitive disorder, or alcohol or drug abuse-related disorders within 12 months prior to baseline. Additional exclusion criteria were acute infections, neurological or any other unstable general disorders, serious suicide risk, formal behaviour therapy, or systematic psychotherapy, pregnancy or breastfeeding. None of patients was known to have a history of hypersensitivity or non-response to escitalopram or other SSRIs. The Human Studies Ethics Committee of the University of Tartu and State Agency of Medicines had approved the study protocol, which was in accordance with Declaration of Helsinki. All participants provided their written informed consent.
# The patients were treated with escitalopram 10-20 mg/day for 12 weeks using an open-label, placebo non-controlled study design. No other medications, including anti-inflammatory drugs, were allowed during the study, except for hormonal contraceptives and zolpidem or zopiclone for insomnia. Clinical severity and treatment response were assessed bi-weekly using the MADRS and Clinical Global Impression scale (CGI). Hamilton Depression Scale (HAM-D) was also used as a secondary scale for clinical assessments. Additionally, the patients were asked to evaluate the depressive symptoms on the Beck Depression Inventory (BDI) and possible side effects on the Toronto Side-effect Scale (TSES) at each visit. All patients started treatment with escitalopram at a dose of 10 mg/day for the first 4 weeks. The patients showing at least 50% decline in the MADRS total score at week 4 continued taking 10 mg of escitalopram until the end of study. […] At the end of week 12 the patients were defined as responders if the decrease in both MADRS and HAM-D total scores was at least 50% and score on the CGI improvement scale was 2 or less. The remitters were defined if the scores were less than 12 on the MADRS and less than 8 on the HAM-D accordingly to earlier clinical trials. […] The severity of depressive symptoms and treatment response were rated blindly to genotypes by one psychiatrist. Each visit the patients were also asked to report about their regularity of taking the medication.
# These 38 markers were genotyped in the remaining 116 individuals, and tested for association with the clinical outcome. Three different outcome definitions were used: MADRS score at the final visit (week 12), relative change (percentage) in MADRS score since baseline, and absolute change in MADRS score since baseline. For each outcome, a univariate additive regression model was fitted to assess the association, as well as a multivariate model, adjusted for age, gender, age at first depression episode, baseline MADRS and BDI scores. Additionally a mixed-effects longitudinal model was fit for MADRS scores at week 0 to week 12, using a random subject-specific intercept. Also here, both unadjusted and adjusted models were fit. […]
smiles,measurement,setting,value
CN(C)CCC[C@@]1(c2ccc(F)cc2)OCc2cc(C#N)ccc21 [escitalopram],decrease of relative MADRS score reduction from baseline per copy of the rs41271330 minor allele,[1],7%
same,patients who discontinued treatment due to lack of efficacy or side effects,[2]; 12-week study,6.7%
same,decrease of relative MADRS score reduction from baseline per copy of the rs41271330 minor allele,"[2]; Estonian sample, 116 patients, SE=6%",18%
same,patients who needed an increased dose after the initial 4 weeks,[2]; carriers of rs41271330 minor allele,88.9%
same,patients with moderate or severe depression (MADRS score 16 or more),"[2]; carriers of rs41271330 minor allele (A), 14/27",52%
same,patients with moderate or severe depression (MADRS score 16 or more),"[2]; homozygous for rs41271330 major allele (G), 19/89",22%
same,patients with insufficient or partial response to treatment,[2]; end of week 12,32.6%
same,patients defined as responders,"[2]; end of week 12, 10-20 mg/day, 135 MDD outpatients, at least 50% decrease in MADRS and HAM-D and CGI improvement 2 or less",60.7%
same,patients who achieved remission,"[2]; end of week 12, MADRS less than 12 and HAM-D less than 8, of total sample",58.5%
same,patients who needed an increased dose after the initial 4 weeks,[2]; homozygous for rs41271330 major allele,62.9%
same,responders among the patients whose daily dose was increased and kept at 20 mg,"[2]; of 85 patients on 20 mg, end of study",41 patients
same,number of patients with MADRS score at week 12 of 0...7,[2]; rs41271330 A/G + A/A,9
same,number of patients with MADRS score at week 12 of 8...15,[2]; rs41271330 A/G + A/A,4
same,number of patients with MADRS score at week 12 of 16...25,[2]; rs41271330 A/G + A/A,10
same,number of patients with MADRS score at week 12 of >25,[2]; rs41271330 A/G + A/A,4
same,share of patients with MADRS score at week 12 of 0...7,[2]; rs41271330 A/G + A/A,33%
same,share of patients with MADRS score at week 12 of 8...15,[2]; rs41271330 A/G + A/A,15%
same,share of patients with MADRS score at week 12 of 16...25,[2]; rs41271330 A/G + A/A,37%
same,share of patients with MADRS score at week 12 of >25,[2]; rs41271330 A/G + A/A,15%
same,number of patients with MADRS score at week 12 of 0...7,[2]; rs41271330 G/G,61
same,number of patients with MADRS score at week 12 of 8...15,[2]; rs41271330 G/G,9
same,number of patients with MADRS score at week 12 of 16...25,[2]; rs41271330 G/G,15
same,number of patients with MADRS score at week 12 of >25,[2]; rs41271330 G/G,4
same,share of patients with MADRS score at week 12 of 0...7,[2]; rs41271330 G/G,69%
same,share of patients with MADRS score at week 12 of 8...15,[2]; rs41271330 G/G,10%
same,share of patients with MADRS score at week 12 of 16...25,[2]; rs41271330 G/G,17%
same,share of patients with MADRS score at week 12 of >25,[2]; rs41271330 G/G,4%
